Source: patent US20220314021A1, “METHOD FOR D[…] […] PHOTODYNAMIC THERAPY AND PHOTODYNAMIC THERAPY APPARATUS” (OTSUKA ELECTRONICS CO., LTD., priority 2019, published 2022)

Tested on: Jurkat cells derived from human T-cell leukemia
Test: cell killing assay by PDT in Jurkat cells (630 nm, Cell Counting Kit-8)
Assay type: cell-based
Conditions: 5-ALA loading 0-1 mmol/L, light irradiation 30 J/cm^2, 630 nm
Protocol: For Jurkat cells derived from human T-cell leukemia which is a disease classification different from that of the human adult T-cell leukemia/lymphoma clinically, amounts of protoporphyrin IX accumulated in the cells by 5-ALA loading (0, 0.0625, 0.125, 0.25, 0.5 and 1 mmol/L) were measured using the fluorescence detection high-performance liquid chromatography method, and then light irradiation (30 J/cm^2) with a central wavelength of 630 nm was further performed as the cell killing assay by PDT, and then cell viabilities (%) using the cell counting kit (Cell Counting Kit-8) were calculated.

NCC(=O)CCC(=O)O [5-ALA, 5-aminolevulinic acid]
cell viabilities versus the regression curve of FIG. 3: located on the regression curve described in FIG. 3
